Measurements: ChEMBL document CHEMBL4311969, “Polygala tenuifolia-Acori tatarinowii herbal pair as an inspiration for substituted cinnamic α-asaronol esters: Design, synthesis, anticonvulsant activity, and inhibition of lactate dehydrogenase study” (Eur J Med Chem, 2019)
Where “and” joins values, the source holds several entries; their conditions need not be identical. Equal values may be shown once. Calls of active or inactive are those of the source. The calls are words filed in the database; no cut-off is given here.

What was measured:
Homo sapiens [1] = species: Homo sapiens; assay: Inhibition of human LDH1 assessed as remaining activity at 0.5 mM using sodium pyruvate as substrate by UV-VIS spectrophotometry method relative to control
Mus musculus [2] = assay: Anticonvulsant activity in ip dosed Kunming mouse assessed as MES-induced hind limb extension administered 0.5 hrs before MES stimulation; format: functional
[3] = Neurotoxicity against ip dosed Kunming mouse assessed as time remained in rod measured at 0.5 hrs by rotarod test; format: toxicity, organism-based; conditions: in vivo
Homo sapiens [4] = species: Homo sapiens; assay: Inhibition of human LDH5 assessed as remaining activity at 0.5 mM using sodium pyruvate as substrate by UV-VIS spectrophotometry method relative to control
Mus musculus [5] = assay: Anticonvulsant activity in ip dosed Kunming mouse assessed as reduction in ScPTZ-induced seizure administered 0.5 hrs before ScPTZ stimulation; format: functional
Mus musculus [6] = assay: Anticonvulsant activity in Kunming mouse assessed as MES-induced hind limb extension at 100 mg/kg, ip administered 0. 5 hrs before MES stimulation relative to control; format: functional
Mus musculus [7] = assay: Anticonvulsant activity in Kunming mouse assessed as reduction in Sc3-MP-induced tonic seizure rate at 300 mg/kg, ip administered 0.5 hrs before Sc3-MP stimulation relative to control; format: functional; design: scale not given: the % may be the effect or the level left
Mus musculus [8] = assay: Anticonvulsant activity in Kunming mouse assessed as reduction in ScPTZ-induced seizure at 100 mg/kg, ip administered 1 hr relative to control; format: functional; design: scale not given: the % may be the effect or the level left
Mus musculus [9] = assay: Anticonvulsant activity in Kunming mouse assessed as reduction in ScPTZ-induced seizure at 100 mg/kg, ip administered 0.5 hrs before ScPTZ stimulation relative to control; format: functional; design: scale not given: the % may be the effect or the level left
Mus musculus [10] = assay: Anticonvulsant activity in Kunming mouse assessed as reduction in ScPTZ-induced tonic seizure rate at 300 mg/kg, ip administered 0.5 hrs before ScPTZ stimulation relative to control; format: functional; design: scale not given: the % may be the effect or the level left
Homo sapiens [11] = species: Homo sapiens; assay: Inhibition of human LDH1 at 0.5 mM using sodium pyruvate as substrate measured for 60 sec for every 5 mins by LC/MS-MS analysis
[12] = (§1) Protective index, ratio of TD50 for neurotoxicity against ip dosed Kunming mouse assessed as time remained in rod measured at 0.5 hrs by rotarod test to ED50 for anticonvulsant activity in ip dosed Kunming mouse assessed as reduction in Sc3-MP-induced seizure administered 0.5 hrs before Sc3-MP stimulation; format: toxicity, organism-based; conditions: in vivo, read-out: PI
Mus musculus [13] = assay: Anticonvulsant activity in Kunming mouse assessed as MES-induced hind limb extension at 100 mg/kg, ip administered 0. 5 to 4 hrs before MES stimulation relative to control; format: functional
Mus musculus [14] = assay: Anticonvulsant activity in Kunming mouse assessed as MES-induced hind limb extension at 100 mg/kg, ip administered 0. 5 to 2 hrs before MES stimulation; format: functional, organism-based
Mus musculus [15] = assay: Anticonvulsant activity in Kunming mouse assessed as reduction in ScPTZ-induced seizure at 100 mg/kg, ip administered 0.25 to 2 hrs before ScPTZ stimulation relative to control; format: functional
Mus musculus [16] = assay: Anticonvulsant activity in Kunming mouse assessed as MES-induced hind limb extension at 100 mg/kg, ip administered 3 hrs before MES stimulation; format: functional, organism-based
Homo sapiens [17] = species: Homo sapiens; assay: Inhibition of human LDH1 at 0.5 mM using sodium pyruvate as substrate by UV-VIS spectrophotometry method relative to control
Mus musculus [18] = assay: Anticonvulsant activity in Kunming mouse assessed as MES-induced hind limb extension at 50 mg/kg, ip administered 0.5 and 2 hrs before MES stimulation relative to control; format: functional
Mus musculus [19] = assay: Anticonvulsant activity in Kunming mouse assessed as MES-induced hind limb extension at 50 mg/kg, ip administered 0.5 to 4 hrs before MES stimulation relative to control; format: functional
Mus musculus [20] = assay: Anticonvulsant activity in Kunming mouse assessed as reduction in ScPTZ-induced tonic seizure rate at 100 mg/kg, ip administered 0.5 hrs before ScPTZ stimulation relative to control; format: functional; design: scale not given: the % may be the effect or the level left
Mus musculus [21] = assay: Anticonvulsant activity in Kunming mouse assessed as reduction in ScPTZ-induced seizure at 300 mg/kg, ip administered 0.25 to 2 hrs before ScPTZ stimulation relative to control; format: functional; design: scale not given: the % may be the effect or the level left
Homo sapiens [22] = species: Homo sapiens; assay: Inhibition of human LDH5 at 0.5 mM using sodium pyruvate as substrate measured for 60 sec for every 5 mins by LC/MS-MS analysis
Mus musculus [23] = assay: Anticonvulsant activity in Kunming mouse assessed as reduction in Sc3-MP-induced seizure ip dosed measured at 0.5 hrs before Sc3-MP stimulation; format: functional
[24] = as §1, with “formalin-induced paw licking” for “Sc3-MP-induced seizure”, “formalin” for “Sc3-MP”; format: toxicity, organism-based; conditions: in vivo, read-out: PI
Mus musculus [25] = assay: Anticonvulsant activity in Kunming mouse assessed as reduction in ScPTZ-induced clonic seizure at 100 mg/kg, ip administered 0.5 hrs before ScPTZ stimulation relative to control; format: functional; design: scale not given: the % may be the effect or the level left
Mus musculus [26] = assay: Anticonvulsant activity in Kunming mouse assessed as reduction in ScPTZ-induced clonic seizure at 300 mg/kg, ip administered 0.5 hrs before ScPTZ stimulation relative to control; format: functional; design: scale not given: the % may be the effect or the level left
Mus musculus [27] = assay: Anticonvulsant activity in Kunming mouse assessed as reduction in Sc3-MP-induced clonic seizure rate at 300 mg/kg, ip administered 0.5 hrs before Sc3-MP stimulation relative to control; format: functional; design: scale not given: the % may be the effect or the level left
[28] = as §1, with “ScPTZ-induced” for “Sc3-MP-induced”, “ScPTZ” for “Sc3-MP”; format: toxicity, organism-based; conditions: in vivo, read-out: PI
Mus musculus [29] = assay: […] activity in ip dosed Kunming mouse assessed as reduction in formalin-induced paw licking administered 0.5 hrs before formalin stimulation; format: functional
Homo sapiens [30] = species: Homo sapiens; assay: Inhibition of human LDH5 at 0.5 mM using sodium pyruvate as substrate by UV-VIS spectrophotometry method relative to control
[31] = Protective index, ratio of TD50 for neurotoxicity against ip dosed Kunming mouse assessed as time remained in rod measured at 0.5 hrs by rotarod test to ED50 for anticonvulsant activity in ip dosed Kunming mouse assessed as MES-induced hind limb extension administered 0.5 hrs; format: toxicity, organism-based; conditions: in vivo, read-out: PI
[32] = Neurotoxicity against Kunming mouse assessed as time remained in rod at 100 mg/kg, ip administered 0.5 to 2 hrs by rotarod test; format: toxicity, organism-based; conditions: in vivo
Mus musculus [33] = assay: Anticonvulsant activity in Kunming mouse assessed as MES-induced hind limb extension at 100 mg/kg, ip administered 4 hrs before MES stimulation; format: functional, organism-based
Mus musculus [34] = assay: Anticonvulsant activity in Kunming mouse assessed as reduction in Sc3-MP-induced seizure at 300 mg/kg, ip administered 0.5 hrs before Sc3-MP stimulation relative to control; format: functional; design: scale not given: the % may be the effect or the level left
Mus musculus [35] = assay: Anticonvulsant activity in Kunming mouse assessed as reduction in Sc3-MP-induced seizure at 300 mg/kg, ip administered 0.25 and 1 hrs before Sc3-MP stimulation relative to control; format: functional, organism-based
Mus musculus [36] = assay: Anticonvulsant activity in Kunming mouse assessed as reduction in ScPTZ-induced seizure at 100 mg/kg, ip administered 0.25 and 1 hrs before ScPTZ stimulation relative to control; format: functional; design: scale not given: the % may be the effect or the level left
[37] = Noncompetitive inhibition of human LDH5 at 0.5 mM using sodium pyruvate as substrate by UV-VIS spectrophotometry method based Lineweaver-Burk plot analysis
[38] = Noncompetitive inhibition of human LDH1 at 0.5 mM using sodium pyruvate as substrate by UV-VIS spectrophotometry method based Lineweaver-Burk plot analysis
Mus musculus [39] = assay: Anticonvulsant activity in Kunming mouse assessed as reduction in Sc3-MP-induced mortality rate at 300 mg/kg, ip administered 0.5 hrs before Sc3-MP stimulation relative to control; format: functional; design: scale not given: the % may be the effect or the level left
Mus musculus [40] = assay: Anticonvulsant activity in Kunming mouse assessed as reduction in ScPTZ-induced mortality rate at 300 mg/kg, ip administered 0.5 hrs before ScPTZ stimulation relative to control; format: functional; design: scale not given: the % may be the effect or the level left

Compound	ED50 (Mus musculus [2])	TD50 at 0.5 h [3]	ED50 (Mus musculus [5])	Activity (Mus musculus [7])	Activity (Mus musculus [10])	selectivity ratio at 0.5 h [12]	Activity (Mus musculus [13])	Activity (Mus musculus [14])	Activity (Mus musculus [15])	inhibition (Homo sapiens [17])	Activity (Mus musculus [18])	Activity (Mus musculus [19])	Activity (Mus musculus [20])	Activity (Mus musculus [21])	ED50 (Mus musculus [23])	selectivity ratio at 0.5 h [24]	Activity (Mus musculus [25])	Activity (Mus musculus [26])	Activity (Mus musculus [27])	selectivity ratio at 0.5 h [28]	also measured
NC(=O)N1c2ccccc2C=Cc2ccccc21 [CARBAMAZEPINE]	18.1 mg/kg and 76.5 µmol/kg	303 µmol/kg	> 100 mg/kg and > 423 µmol/kg	–	–	–	–	–	–	–	–	–	–	–	–	–	–	–	–	–	Activity (Homo sapiens [1]): 100%; Activity (Homo sapiens [4]): 100%
COc1cc(OC)c(OC)cc1/C=C/COC(=O)/C=C/c1ccc(F)cc1	92.9 µmol/kg and 34.6 mg/kg	> 2690 µmol/kg and > 1000 mg/kg	167 mg/kg and 449 µmol/kg	75%	0%	5	25 - 100%	Active	inactive	< 5%	75%	50%	100%	50%	> 300 mg/kg and > 806 µmol/kg	23	100%	100%	100%	> 5.9	Activity (Mus musculus [6]): 100%; Activity (Mus musculus [8]): 75%; Activity (Mus musculus [9]): 100%; inhibition (Homo sapiens [11]): 5%; Activity (Mus musculus [16]): Active; inhibition (Homo sapiens [22]): 5%; ED50 (Mus musculus [29]): 43.4 mg/kg and 116 µmol/kg; inhibition (Homo sapiens [30]): < 9%; selectivity ratio at 0.5 h [31]: > 28.9; Activity [32]: Non-Toxic; Activity (Mus musculus [33]): Active
CCCC(CCC)C(=O)O	–	–	–	–	–	–	–	–	–	–	–	–	–	–	–	–	–	–	–	–	Activity (Homo sapiens [1]): 100%; Activity (Homo sapiens [4]): 100%
COc1cc(OC)c(OC)cc1/C=C/COC(=O)/C=C/c1cc(OC)c(OC)c(OC)c1	74.7 µmol/kg and 33.2 mg/kg	2220 µmol/kg and 988 mg/kg	204 mg/kg and 458 µmol/kg	75%	25%	3.3	25 - 100%	Active	inactive	10%	75%	50%	100%	50%	> 200 mg/kg and > 450 µmol/kg	11.6	100%	100%	100%	4.9	Activity (Mus musculus [6]): 100%; inhibition (Homo sapiens [11]): 10%; Activity (Mus musculus [16]): Active; Activity (Mus musculus [34]): 50%; Activity (Mus musculus [35]): Active; inhibition (Homo sapiens [22]): 13%; Activity (Mus musculus [36]): 75%; Ki [37]: 3.35 µM; ED50 (Mus musculus [29]): 85.5 mg/kg and 192 µmol/kg; inhibition (Homo sapiens [30]): 13%; Ki [38]: 14.1 µM; selectivity ratio at 0.5 h [31]: 29.8; Activity [32]: Non-Toxic
COc1cc(OC)c(OC)cc1/C=C/COC(=O)/C=C/c1c(OC)ccc(OC)c1OC	120 µmol/kg and 53.5 mg/kg	> 1000 mg/kg and > 2250 µmol/kg	212 mg/kg and 476 µmol/kg	75%	50%	3.3	25 - 100%	Active	inactive	Active	50%	50%	100%	50%	> 300 mg/kg and > 675 µmol/kg	12.5	100%	100%	100%	4.72	Activity (Mus musculus [6]): 100%; Ki [37]: 3.52 µM; Activity (Mus musculus [39]): 25%; ED50 (Mus musculus [29]): 180 to 225 µmol/kg; inhibition (Homo sapiens [30]): Active; Ki [38]: 12 µM; selectivity ratio at 0.5 h [31]: > 18.7; Activity [32]: Non-Toxic
COc1ccccc1/C=C/C(=O)OC/C=C/c1cc(OC)c(OC)cc1OC	39 mg/kg and 101 µmol/kg	> 1000 mg/kg and 2600 µmol/kg	240 mg/kg and 625 µmol/kg	100%	50%	3.3	25 - 100%	Active	inactive	inactive	75%	50%	100%	50%	> 300 mg/kg and 780 µmol/kg	> 8.9	100%	100%	100%	> 4.2	Activity (Mus musculus [6]): 100%; inhibition (Homo sapiens [11]): 2%; inhibition (Homo sapiens [22]): 2%; Activity (Mus musculus [40]): 25%; ED50 (Mus musculus [29]): 113 mg/kg and 294 µmol/kg; inhibition (Homo sapiens [30]): inactive; selectivity ratio at 0.5 h [31]: > 25.6; Activity [32]: Non-Toxic; Activity (Mus musculus [33]): Active
COc1cc(OC)c(OC)cc1/C=C/COC(=O)/C=C/c1ccc(OC)c(OC)c1	58.1 mg/kg and 140 µmol/kg	> 1000 mg/kg and > 2410 µmol/kg	173 mg/kg and 418 µmol/kg	75%	0%	3.3	25 - 100%	Active	inactive	Active	50%	50%	100%	50%	> 300 mg/kg and > 724 µmol/kg	> 10.7	100%	100%	100%	> 5.8	Activity (Mus musculus [8]): 75%; Activity (Mus musculus [9]): 100%; Activity (Mus musculus [39]): 25%; ED50 (Mus musculus [29]): 93.3 mg/kg and 225 µmol/kg; inhibition (Homo sapiens [30]): Active; selectivity ratio at 0.5 h [31]: > 17.2; Activity [32]: Non-Toxic
